Measured values taken from article PMC10444862, “Using macromolecular electron densities to improve the enrichment of active compounds in virtual screening” (Communications Chemistry, 2023).

The molecules below were run against SARS-COV-2 3CLpro (having a P132H mutation, 3CLpro^P132H) (Severe acute respiratory syndrome coronavirus 2, UniProt P0DTD1, P3395H).
Assay type: biochemical

Row | Compound | Inhibition Rate ([Cpd.]=40 uM)
1 | C/C(=N\Nc1nc2c(c(=O)[nH]c(=O)n2C)n1Cc1cccc2ccccc12)c1ccc(O)cc1 [D1, C/C(=N\Nc1nc2c(c(=O)[nH]c(=O)n2C)n1Cc1cccc2ccccc12)c1ccc(O)cc1] | 1.49
2 | O=C(CN1C(=O)NC2(CCCC2)C1=O)Nc1ccccc1C(=O)Nc1ccc2c(c1)OCO2 [D2, O=C(CN1C(=O)NC2(CCCC2)C1=O)Nc1ccccc1C(=O)Nc1ccc2c(c1)OCO2] | 0.56
3 | Cc1c(C(=O)NCCC2=CCCCC2)sc2ncnc(N(C)c3ccccc3)c12 [D3, Cc1c(C(=O)NCCC2=CCCCC2)sc2ncnc(N(C)c3ccccc3)c12] | 0.63
4 | COc1ccc(Cn2cc(C(CC(=O)N3CCCC3)c3ccccc3F)c3ccccc32)cc1 (stereo not shown) [D4, COc1ccc(Cn2cc(C(CC(=O)N3CCCC3)c3ccccc3F)c3ccccc32)cc1] | < 0.5
5 | COc1ccccc1-n1c(=O)c2c3c(sc2n(Cc2cccc(F)c2)c1=O)CN(C(C)=O)CC3 [D5, COc1ccccc1-n1c(=O)c2c3c(sc2n(Cc2cccc(F)c2)c1=O)CN(C(C)=O)CC3] | < 0.5
6 | CC(C)C(NC(=O)c1ccccc1Cl)C(=O)OCC(=O)Nc1cccc(S(N)(=O)=O)c1 (stereo not shown) [D6, CC(C)C(NC(=O)c1ccccc1Cl)C(=O)OCC(=O)Nc1cccc(S(N)(=O)=O)c1] | < 0.5
7 | COc1ccccc1-n1c(=O)c2c3c(sc2n(Cc2cccc(Cl)c2)c1=O)CN(C(C)=O)CC3 [D7, COc1ccccc1-n1c(=O)c2c3c(sc2n(Cc2cccc(Cl)c2)c1=O)CN(C(C)=O)CC3] | < 0.5
8 | O=C(c1ccsc1)N1CCC[C@H](n2c(=O)n(Cc3cccc(F)c3)c3cccnc32)C1 [D8, O=C(c1ccsc1)N1CCC[C@H](n2c(=O)n(Cc3cccc(F)c3)c3cccnc32)C1] | < 0.5
9 | Cc1ccccc1N1C(=O)C(=Cc2ccc(N3CCOCC3)cc2)c2ccccc2C1=O [D9, Cc1ccccc1N1C(=O)C(=Cc2ccc(N3CCOCC3)cc2)c2ccccc2C1=O] | < 0.5
10 | C/C(=N\Nc1nc2c(c(O)nc(=O)n2C)n1Cc1cccc2ccccc12)c1ccc(O)cc1 [D10, C/C(=N\Nc1nc2c(c(O)nc(=O)n2C)n1Cc1cccc2ccccc12)c1ccc(O)cc1] | < 0.5
11 | Cc1ccc(N2C(=O)N(CC(=O)Nc3cccc(S(N)(=O)=O)c3)C(=O)C2C)cc1 (stereo not shown) [D11, Cc1ccc(N2C(=O)N(CC(=O)Nc3cccc(S(N)(=O)=O)c3)C(=O)C2C)cc1] | < 0.5
12 | CC1CC(C)CN(C(=O)c2ccccc2NC(=O)N2CC(O)CC(F)(F)C2)C1 (stereo not shown) [D12, CC1CC(C)CN(C(=O)c2ccccc2NC(=O)N2CC(O)CC(F)(F)C2)C1] | < 0.5
13 | CC(C)[C@H](NS(=O)(=O)c1ccccc1F)C(=O)OCC(=O)Nc1cccc(S(N)(=O)=O)c1 [D13, CC(C)[C@H](NS(=O)(=O)c1ccccc1F)C(=O)OCC(=O)Nc1cccc(S(N)(=O)=O)c1] | < 0.5
14 | Cc1c(C(=O)N(C)Cc2ccccc2)sc2ncnc(N(C)c3ccccc3)c12 [D14, Cc1c(C(=O)N(C)Cc2ccccc2)sc2ncnc(N(C)c3ccccc3)c12] | < 0.5
15 | Cn1nccc1C(=O)N1CCC[C@H](n2c(=O)n(Cc3ccccc3)c3cccnc32)C1 [D15, Cn1nccc1C(=O)N1CCC[C@H](n2c(=O)n(Cc3ccccc3)c3cccnc32)C1] | < 0.5
16 | O=CN1CCCN(C(=O)CC2C(=O)NCCN2Cc2cccc(Oc3ccccc3)c2)CC1 (stereo not shown) [D16, O=CN1CCCN(C(=O)CC2C(=O)NCCN2Cc2cccc(Oc3ccccc3)c2)CC1] | < 0.5
17 | COc1ccccc1-n1c(=O)c2c3c(sc2n(Cc2ccccc2)c1=O)CN(C(C)=O)CC3 [D17, COc1ccccc1-n1c(=O)c2c3c(sc2n(Cc2ccccc2)c1=O)CN(C(C)=O)CC3] | < 0.5
18 | O=C(c1ccco1)N1CCC[C@H](n2c(=O)n(Cc3ccccc3)c3cccnc32)C1 [D18, O=C(c1ccco1)N1CCC[C@H](n2c(=O)n(Cc3ccccc3)c3cccnc32)C1] | < 0.5
19 | O=C(Nc1ccccc1)N1CCCC(C(=O)N2CC(C(=O)N3CCCCC3)Oc3ccccc32)C1 (stereo not shown) [D19, O=C(Nc1ccccc1)N1CCCC(C(=O)N2CC(C(=O)N3CCCCC3)Oc3ccccc32)C1] | < 0.5
20 | C[C@@]1(O)C[C@H](O)CN(C(=O)[C@@H](N)Cc2ccc(O)cc2)C[C@H]1n1cnc2c(N)nc(N)nc21 [D20, C[C@@]1(O)C[C@H](O)CN(C(=O)[C@@H](N)Cc2ccc(O)cc2)C[C@H]1n1cnc2c(N)nc(N)nc21] | < 0.5
21 | O=C(NC(c1ccccc1)c1ccc2[nH]cnc2c1)C1=NN(C2CCS(=O)(=O)C2)C(=O)CC1 (stereo not shown) [D21, O=C(NC(c1ccccc1)c1ccc2[nH]cnc2c1)C1=NN(C2CCS(=O)(=O)C2)C(=O)CC1] | < 0.5
22 | CC(=O)N1CCc2c(sc3c2c(=O)n(-c2ccccc2)c(=O)n3CC(=O)c2ccc(F)cc2)C1 [D22, CC(=O)N1CCc2c(sc3c2c(=O)n(-c2ccccc2)c(=O)n3CC(=O)c2ccc(F)cc2)C1] | < 0.5
23 | COCCn1/c(=N/C(=O)c2c(F)cccc2F)sc2cc(S(N)(=O)=O)ccc21 [D23, COCCn1/c(=N/C(=O)c2c(F)cccc2F)sc2cc(S(N)(=O)=O)ccc21] | < 0.5

Row | Compound | Inhibition Rate ([Cpd.]=40 uM)
24 | O=C(c1cccc(O)c1)N1C[C@@H](c2cc(F)cc(F)c2)[C@@H]2[C@H]1C1CCN2CC1 [D24, O=C(c1cccc(O)c1)N1C[C@@H](c2cc(F)cc(F)c2)[C@@H]2[C@H]1C1CCN2CC1] | < 0.5
25 | Cn1c(NC(=O)c2cnn3c(C(F)(F)F)cc(-c4cccc5ccccc45)nc23)nc2ccccc21 [E1, Cn1c(NC(=O)c2cnn3c(C(F)(F)F)cc(-c4cccc5ccccc45)nc23)nc2ccccc21] | 0.82
26 | CCn1c(=O)n(CCC(=O)NC(Cc2ccccc2)c2nc3ccccc3[nH]2)c2ccccc21 (stereo not shown) [E2, CCn1c(=O)n(CCC(=O)NC(Cc2ccccc2)c2nc3ccccc3[nH]2)c2ccccc21] | 0.67
27 | CC(=O)N1CCc2c(sc3c2c(=O)n(-c2ccc(F)cc2)c(=O)n3Cc2cc(C)ccc2C)C1 [E3, CC(=O)N1CCc2c(sc3c2c(=O)n(-c2ccc(F)cc2)c(=O)n3Cc2cc(C)ccc2C)C1] | 0.92
28 | O=C1/C(=C\NN(Cc2ccccc2)c2ccccc2)c2ccccc2C(=O)N1c1cccc(Cl)c1 [E4, O=C1C(=CNN(Cc2ccccc2)c2ccccc2)c2ccccc2C(=O)N1c1cccc(Cl)c1] | 0.65
29 | CC(=O)N1CCc2c(sc3c2c(=O)n(-c2ccccc2)c(=O)n3Cc2cc(C)ccc2C)C1 [E5, CC(=O)N1CCc2c(sc3c2c(=O)n(-c2ccccc2)c(=O)n3Cc2cc(C)ccc2C)C1] | 0.64
30 | O=C(c1cccnc1)N1CCc2c([nH]c3ccccc23)C1c1cccc(C(F)(F)F)c1 (stereo not shown) [E6, O=C(c1cccnc1)N1CCc2c([nH]c3ccccc23)C1c1cccc(C(F)(F)F)c1] | 0.55
31 | CC(=O)N1C(C(=O)N(CCc2ccccc2)Cc2ccccc2)CSC1c1ccccc1O (stereo not shown) [E7, CC(=O)N1C(C(=O)N(CCc2ccccc2)Cc2ccccc2)CSC1c1ccccc1O] | 0.63
32 | Cc1cccc(Cn2c(=O)c(C(=O)NCc3ccco3)nn(-c3ccccc3F)c2=O)c1 [E8, Cc1cccc(Cn2c(=O)c(C(=O)NCc3ccco3)nn(-c3ccccc3F)c2=O)c1] | 0.66
33 | CCc1ccccc1N(CC(=O)Nc1ccccc1C(=O)NC(C)CC)S(=O)(=O)c1ccccc1 (stereo not shown) [E9, CCc1ccccc1N(CC(=O)Nc1ccccc1C(=O)NC(C)CC)S(=O)(=O)c1ccccc1] | 0.54
34 | COc1ccc(/N=C(/Nc2ccc(OC)cc2)c2cccc3ccccc23)cc1 [E10, COc1ccc(/N=C(/Nc2ccc(OC)cc2)c2cccc3ccccc23)cc1] | < 0.5
35 | CN(CCCN(Cc1cccn1Cc1ccc(Cl)cc1)C(=O)Nc1ccccc1)c1ccccc1 [E11, CN(CCCN(Cc1cccn1Cc1ccc(Cl)cc1)C(=O)Nc1ccccc1)c1ccccc1] | < 0.5
36 | CCOc1ccc(N(Cc2nnc3n2CCCCC3)C(=O)Nc2ccc(C)cc2)cc1 [E12, CCOc1ccc(N(Cc2nnc3n2CCCCC3)C(=O)Nc2ccc(C)cc2)cc1] | < 0.5
37 | CC(=O)N1CCc2c(sc3c2c(=O)n(Cc2ccccc2)c(=O)n3Cc2cccc(C)c2)C1 [E13, CC(=O)N1CCc2c(sc3c2c(=O)n(Cc2ccccc2)c(=O)n3Cc2cccc(C)c2)C1] | < 0.5
38 | COc1cccc(-n2c(=O)c3c(C)c(C(=O)N(C)C)sc3n(Cc3cccc(F)c3)c2=O)c1 [E14, COc1cccc(-n2c(=O)c3c(C)c(C(=O)N(C)C)sc3n(Cc3cccc(F)c3)c2=O)c1] | < 0.5
39 | CCN(CC)C(=O)c1sc2c(c1C)c(=O)n(-c1ccccc1)c(=O)n2Cc1cccc(Cl)c1 [E15, CCN(CC)C(=O)c1sc2c(c1C)c(=O)n(-c1ccccc1)c(=O)n2Cc1cccc(Cl)c1] | < 0.5
40 | CC(=O)N1CCc2c(sc3c2c(=O)n(-c2ccccc2C)c(=O)n3Cc2cc(C)ccc2C)C1 [E16, CC(=O)N1CCc2c(sc3c2c(=O)n(-c2ccccc2C)c(=O)n3Cc2cc(C)ccc2C)C1] | < 0.5
41 | NC(=O)C[C@H]1CN(C(=O)COc2ncccn2)C[C@H]1OC(=O)c1ccccc1 [E17, NC(=O)C[C@H]1CN(C(=O)COc2ncccn2)C[C@H]1OC(=O)c1ccccc1] | < 0.5
42 | CC(=O)c1ccc(C(=O)N2CCc3c([nH]c4ccccc34)C2c2ccccc2F)s1 (stereo not shown) [E18, CC(=O)c1ccc(C(=O)N2CCc3c([nH]c4ccccc34)C2c2ccccc2F)s1] | < 0.5
43 | COc1cccc(CN(CCc2c[nH]c3ccccc23)C(=O)c2ccnn2C)c1 [E19, COc1cccc(CN(CCc2c[nH]c3ccccc23)C(=O)c2ccnn2C)c1] | < 0.5
44 | COCc1ccc(C(=O)N(Cc2ccccc2)Cc2nc3ccccc3c(=O)[nH]2)cc1 [E20, COCc1ccc(C(=O)N(Cc2ccccc2)Cc2nc3ccccc3c(=O)[nH]2)cc1] | < 0.5
45 | O=C1[C@@H]2Cc3c([nH]c4ccccc34)C(c3cccc([N+](=O)[O-])c3)N2C(=O)CN1CC(O)c1ccccc1 (stereo partly shown) [E21, O=C1[C@@H]2Cc3c([nH]c4ccccc34)C(c3cccc([N+](=O)[O-])c3)N2C(=O)CN1CC(O)c1ccccc1] | < 0.5
46 | O=C(c1cc(=O)c2ccccc2o1)N1CCc2c([nH]c3ccccc23)C1c1ccccc1F (stereo not shown) [E22, O=C(c1cc(=O)c2ccccc2o1)N1CCc2c([nH]c3ccccc23)C1c1ccccc1F] | < 0.5
